From ChEMBL document CHEMBL1123745, “Preparation and biological evaluation of a potential photoaffinity label for the prostaglandin H2/thromboxane A2 receptor” (J Med Chem, 1987) come the findings set out here.

Experiment [1] is described as follows: Ability to inhibit ADP (10 uM) induced aggregation in human platelet rich plasma (PRP) relative to 13-azaprostanoic acid. It is filed as functional.
Experiment [2] is described as follows: Ability to inhibit U-46,619 (0.5 uM) induced aggregation in human platelet rich plasma (PRP) relative to 13-azaprostanoic acid. The format is functional.
The species named for experiment [3] is Homo sapiens. Put plainly: Inhibition of [3H]U-46619 binding in dark incubated platelets. It is filed as functional.
Experiment [4] addresses T1, Thromboxane A2 receptor (Homo sapiens) (UniProt P21731).
T1 sequence (whole entry): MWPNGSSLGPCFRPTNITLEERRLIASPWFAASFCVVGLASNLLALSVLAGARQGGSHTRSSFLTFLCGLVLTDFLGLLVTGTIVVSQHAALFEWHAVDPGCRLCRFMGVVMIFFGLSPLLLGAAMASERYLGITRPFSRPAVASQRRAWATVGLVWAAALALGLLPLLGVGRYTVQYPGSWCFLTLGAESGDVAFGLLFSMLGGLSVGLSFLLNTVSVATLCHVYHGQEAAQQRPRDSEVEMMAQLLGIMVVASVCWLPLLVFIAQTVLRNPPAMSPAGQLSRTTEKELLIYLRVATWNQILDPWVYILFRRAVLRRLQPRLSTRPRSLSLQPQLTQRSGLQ
Put plainly: Ability to inhibit the U-46,619 (TXA2 agonist, 3 uM). The format is functional.

The target of experiment [5] is T1, Thromboxane A2 receptor (Homo sapiens). Put plainly: Ability to inhibit the U-46,619 (TXA2 agonist,3uM) induced aggregation in human platelets; range (5-20 uM). It is filed as functional.
Experiment [6] shares this target. Put plainly: Ability to inhibit the U-46,619 (TXA2 agonist,3 uM) induced aggregation in human platelets was determined. It is filed as functional.
Experiment [7] shares this target. Put plainly: Inhibition of UV-irridiated platelets relative to dark incubated platelets after irreversible inhibition of U-46,619 binding after photoactivation (p<0.02). Particulars: concentration not given here.

In general, Inhibition refers to the change of the read-out against control, counted positive when it falls. Low values mean a response near the control, high ones a response far below the control. The term Ki denotes a measure of affinity in units of concentration, obtained from inhibition or displacement. Higher therefore signals lower affinity. For the molecule `[N-]=[N+]=Nc1ccc(CCCNC2CCCC2CCCCCCC(=O)O)cc1[127I]` (trans isomer), the results for the Inhibition in experiment [1] and in experiment [2] were 15% and 81%, respectively. In addition, the Ki in experiment [3] is 0.29 µM.

For `O=C(O)CCCCCCC1CCCC1NCCCOc1ccccc1` (trans isomer), the ED50 in experiment [4] is 20 µM.

On to `[N-]=[N+]=Nc1ccc(CCCNC2CCCC2CCCCCCC(=O)O)cc1` (cis isomer), for which the ED50 in experiment [5] worked out at 20 µM.

In experiment [5], `O=C(O)CCCCCCC1CCCC1NCCCOc1ccc([N+](=O)[O-])cc1` (stereo in doubt) displayed an ED50 of 20 µM.

As usually defined, the inhibition is the drop in the measured response relative to a control, in per cent. On to `[N-]=[N+]=Nc1ccc(CCCNC2CCCC2CCCCCCC(=O)O)cc1I` (trans isomer), for which the ED50 in experiment [6] is 2 µM. This molecule also gave an inhibition in experiment [7] of 38%.

Take `[N-]=[N+]=Nc1ccc(CCCNC2CCCC2CCCCCCC(=O)O)cc1` (trans isomer) [listing 1 of 2 here]: the Inhibition in experiment [1] is listed as 19%; in experiment [2], 63%.

With `O=C(O)CCCCCCC1CCCC1NCCCc1ccc([N+](=O)[O-])cc1` (trans isomer), the ED50 in experiment [5] was 20 µM.

Turning to `O=C(O)CCCCCCC1CCCC1NCCCc1ccc([N+](=O)[O-])cc1` (cis isomer), the ED50 in experiment [5] came to 20 µM.

`Nc1ccc(OCCCNC2CCCC2CCCCCCC(=O)O)cc1` (trans isomer) yielded an ED50 in experiment [5] of 20 µM.

`[N-]=[N+]=Nc1ccc(CCCNC2CCCC2CCCCCCC(=O)O)cc1` (trans isomer) [listing 2 of 2 here] registered an ED50 in experiment [5] of 20 µM.

In experiment [5], `O=C(O)CCCCCCC1CCCC1NCCCOc1ccc([N+](=O)[O-])cc1` (trans isomer) gave an ED50 of 20 µM.

In the case of `[N-]=[N+]=Nc1ccc(OCCCNC2CCCC2CCCCCCC(=O)O)cc1` (trans isomer), the values for the Inhibition in experiment [1] and in experiment [2] were 50% and 38%, respectively. In experiment [5], this molecule had an ED50 of 20 µM.

As to `O=C(O)CCCCCCC1CCCC1NCCCOc1ccccc1` (stereo not given), the ED50 in experiment [5] came to 20 µM.

For `Nc1ccc(CCCNC2CCCC2CCCCCCC(=O)O)cc1` (trans isomer), in experiment [5], the ED50 is 20 µM.
